{"source": "paper PMC5675747", "about": "(The Journal of steroid biochemistry and molecular biology, 2017)", "molecules": {"B1": {"name": "zfSult3st4 (Danio rerio) (protein)", "chain": "MAQEECKMISDKLLKYKETVLTLEPSYDITPEYIDSIQDFETRDDDVFVVTFPKSGTVWTQRIITLIYEEDFPEKAKQITFEQMPWIEYRKKGKDYSTRPSPRLFCSHLLEPLMPKTLKRKGKVIYVMRNPKDVMVSYFHFSKKMKNLDSAKSYDEVLENFLTGCMVGGSWFDHVKGWVTSKDKYNILILTYEEMIKDLRSVIVKICEFVGKNLSDAAIDKVVERATFKQMKVDPVANYESLPVDITDQPKGAFMRKGTVGDWRNSLTMAQSECVDGALEERMKDVPLNLVWDITELRG"}, "B2": {"name": "hSULT2A1 (Homo sapiens) (protein)", "chain": "MSDDFLWFEGIAFPTMGFRSETLRKVRDEFVIRDEDVIILTYPKSGTNWLAEILCLMHSKGDAKWIQSVPIWERSPWVESEIGYTALSETESPRLFSSHLPIQLFPKSFFSSKAKVIYLMRNPRDVLVSGYFFWKNMKFIKKPKSWEEYFEWFCQGTVLYGSWFDHIHGWMPMREEKNFLLLSYEELKQDTGRTIEKICQFLGKTLEPEELNLILKNSSFQSMKENKMSNYSLLSVDYVVDKAQLLRKGVSGDWKNHFTVAQAEDFDKLFQEKMADLPRELFPWE"}}, "key": {"[1]": {"biological_target": "T1, hSULT2A1 (Homo sapiens, UniProt Q06520)", "T1 sequence (Q06520 1-285)": "B2 chain", "experiment": "[…]PAPS sulfation assay, TLC and scintillation counting", "format": "biochemical", "conditions": "14 μM PAPS, 50 mM Mops pH 7.0, 1 mM DTT, 37 °C; substrate inhibition constant"}, "[2]": {"biological_target": "T2, zfSult2st2 (Danio rerio, UniProt A0EXC5)", "T2 sequence (A0EXC5 1-287)": "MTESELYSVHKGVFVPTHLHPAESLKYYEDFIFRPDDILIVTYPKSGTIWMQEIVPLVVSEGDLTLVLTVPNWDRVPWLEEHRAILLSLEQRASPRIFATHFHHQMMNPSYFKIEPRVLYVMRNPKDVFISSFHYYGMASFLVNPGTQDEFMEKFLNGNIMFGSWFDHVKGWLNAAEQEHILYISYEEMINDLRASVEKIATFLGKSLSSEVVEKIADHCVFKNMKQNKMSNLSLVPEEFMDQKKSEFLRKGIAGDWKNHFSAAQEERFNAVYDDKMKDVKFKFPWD", "experiment": "[…]PAPS sulfation assay, TLC and scintillation counting", "format": "biochemical", "conditions": "14 μM PAPS, 50 mM Mops pH 7.0, 1 mM DTT, 28 °C; substrate inhibition constant"}, "[3]": {"biological_target": "T3, zfSult3st4 (Danio rerio, UniProt A0A8M1P203)", "T3 sequence (A0A8M1P203 1-299)": "B1 chain", "experiment": "[…]PAPS sulfation assay, TLC and scintillation counting", "format": "biochemical", "conditions": "14 μM PAPS, 50 mM Mops pH 7.0, 1 mM DTT, 28 °C; substrate inhibition constant"}, "[4]": {"biological_target": "T4, zfSult2st3 (Danio rerio, UniProt A0ACM8QCA3)", "T4 sequence (A0ACM8QCA3 1-288)": "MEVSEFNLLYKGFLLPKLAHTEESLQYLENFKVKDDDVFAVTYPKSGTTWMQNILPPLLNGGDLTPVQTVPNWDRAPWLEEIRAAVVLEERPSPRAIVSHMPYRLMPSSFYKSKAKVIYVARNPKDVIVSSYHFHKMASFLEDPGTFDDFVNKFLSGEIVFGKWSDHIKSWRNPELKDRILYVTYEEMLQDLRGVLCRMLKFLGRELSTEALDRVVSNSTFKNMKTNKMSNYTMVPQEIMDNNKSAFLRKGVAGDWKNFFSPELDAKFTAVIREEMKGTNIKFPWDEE", "experiment": "[…]PAPS sulfation assay, TLC and scintillation counting", "format": "biochemical", "conditions": "14 μM PAPS, 50 mM Mops pH 7.0, 1 mM DTT, 28 °C; substrate inhibition constant"}, "[5]": {"substrate": "C[C@H](CCCC(CO)CO)[C@H]1CC[C@H]2[C@@H]3[C@H](O)C[C@@H]4C[C@H](O)CC[C@]4(C)[C@H]3C[C@H](O)[C@]12C", "experiment": "purified protein", "format": "biochemical, Danio rerio", "conditions": "14 μM PAPS, 50 mM Mops pH 7.0, 1 mM DTT, 28 °C"}, "[6]": {"substrate": "C[C@H](CCCC(CO)CO)[C@H]1CC[C@H]2[C@@H]3[C@H](O)C[C@@H]4C[C@H](O)CC[C@]4(C)[C@H]3C[C@H](O)[C@]12C", "experiment": "purified protein", "format": "biochemical, Homo sapiens", "conditions": "14 μM PAPS, 50 mM Mops pH 7.0, 1 mM DTT, 37 °C"}}, "data": [{"molecule": "C[C@H](CCCC(CO)CO)[C@H]1CC[C@H]2[C@@H]3[C@H](O)C[C@H]4C[C@H](O)CC[C@]4(C)[C@H]3C[C@H](O)[C@]12C", "note": "[5α-cyprinol, 3α,7α,12α,26,27-pentahydroxy-5α-cholestane]", "values": [{"measurement": "Ki", "setting": "[1]", "result": "210.8 ± 19.9", "unit": "µM"}, {"measurement": "Ki", "setting": "[2]", "result": "27.43 ± 11.16", "unit": "µM"}, {"measurement": "Ki", "setting": "[3]", "result": "164.9 ± 22.2", "unit": "µM"}, {"measurement": "Ki", "setting": "[4]", "result": "373.9 ± 38.0", "unit": "µM"}]}, {"molecule": "C[C@H](CCCC(CO)CO)[C@H]1CC[C@H]2[C@@H]3[C@H](O)C[C@@H]4C[C@H](O)CC[C@]4(C)[C@H]3C[C@H](O)[C@]12C", "note": "[5β-cyprinol]", "values": [{"measurement": "Ki", "setting": "[2]", "result": "58.15 ± 5.74", "unit": "µM"}, {"measurement": "Ki", "setting": "[4]", "result": "39.78 ± 6.70", "unit": "µM"}]}, {"molecule": "B1", "values": [{"measurement": "Km", "setting": "[5]", "result": "98.9 ± 2.89", "unit": "µM"}, {"measurement": "Vmax", "setting": "[5]", "result": 0.00397, "unit": "µmol/min/mg"}]}, {"molecule": "B2", "values": [{"measurement": "Km", "setting": "[6]", "result": "221.3 ± 23.1", "unit": "µM"}, {"measurement": "Vmax", "setting": "[6]", "result": 0.00224, "unit": "µmol/min/mg"}]}]}
